Assays:
[1] = system: Male SD rats; assay: In vivo insulin secretion promoting effect and hypoglycemic action, oral glucose tolerance test; design: species or system rat; settings: 30 mg/kg oral, glucose 2 g/kg oral 30 min after administration, Williams test p<=0.025
Method: Male SD rats (CLEA Japan, Inc, 7-week-old) were fasted for one day, and divided into groups (6 per group) based on blood glucose level and body weight. A suspension of the compound of Example 41 in 0.5% methyl cellulose was orally administered at the dose of 30 mg/kg and glucose (2 g/kg) was orally loaded at 30 min after administration. Only 0.5% methyl cellulose was administered to the control group, and similarly loaded with glucose. Plasma was taken before glucose tolerance test, and 7, 30 and 60 minutes after glucose tolerance test, and the blood glucose level and insulin concentration were measured. The blood glucose level was measured by HITACHI autoanalyzer 7070, and insulin was measured by radioimmunoassay ([^125L] Sionoria insulin, Shionogi & Co., Ltd.).

[2] = target: T1, human GPR40 (Homo sapiens, UniProt O14842); assay: Effect of regulation of GPR40 receptor function (agonistic effect), intracellular calcium by FLIPR; format: cell-based; settings: CHO cell line (No. 104) expressing human GPR40, fluorescence intensity at 30 sec after start of reaction
T1 construct: expressed in transfected cells; host or cells: CHO cell line CHO-hGPR40 No. 104 (pAKKO-111 vector)
Method: CHO cell line (No. 104) made to express human GPR40 was diluted such that 3×10^4 cells/100 μL were contained, dispensed to a black walled 96-well plate (Costar) at 100 μL per well, and incubated overnight in a CO2 incubator. The changes in the intracellular calcium concentration were measured using FLIPR (Molecular Device). The method is described in the following.
Fluo-3AM (DOJIN) (50 μg) was dissolved in 21 μl DMSO (DOJIN), and an equal amount of 20% pluronic acid (Molecular Probes) was added and mixed, and the mixture was added to 10.6 ml of an assay buffer [prepared by adding 20 ml of 1M HEPES (pH 7.4) (DOJIN) to 1 L of HBSS (Invitrogen), and adding a mixed solution (10 ml) obtained by dissolving probenecid (Sigma) (710 mg) in 1N NaOH (5 ml) and adding and mixing with the above-mentioned HBSS/HEPES solution (5 ml)] supplemented with 105 μl of fetal calf serum to give a fluorescence dye solution. The medium in the cell plate was removed, a fluorescence dye solution was immediately dispensed at 100 μl per well, and incubated in a CO2 incubator for 1 hr to incorporate fluorescence dye into the cell. The incubated cells were washed with the above-mentioned assay buffer. The compound to be added to the cell was diluted with the assay buffer to each concentration and dispensed to a test sample plate. After the above-mentioned pretreatment, changes in the intracellular calcium concentration after addition of the compound was measured by FLIPR, and the agonistic effect was examined. EC50 value was calculated from a dose response curve based on the changes in the fluorescence intensity value at 30 sec after the start of the reaction.

[3] = system: mouse pancreatic β cell line MIN6; assay: Promotion of insulin secretion from MIN6 (insulin immunoassay); format: cell-based; settings: MIN6, KRBH with 22 mM glucose, 90 min
Method: (§1) Mouse pancreatic β cell line MIN6 cultured in a flask was detached with PBS containing 2.5 mM EDTA, and seeded and incubated in a 96 well plate for 2 days. The medium used was obtained by adding 15% fetal bovine serum (ThermoTrace), […] 2-mercaptoethanol (Invitrogen), 20 mM HEPES pH 7.3, 100 U/ml penicillin and 100 μg/ml streptomycin to Dulbecco's Modified Eagle Medium (DMEM, Invitrogen) containing 4.5 g/l of glucose. The cells were washed twice with modified Krebs-Ringer bicarbonate buffer (KRBH, 116 mM NaCl, 4.7 mM KCl, 1.2 mM KH2PO4, 1.2 mM MgSO4, 2.5 mM CaCl2, 25 mM NaHCO3, 24 mM HEPES pH 7.3) and preincubated at 37° C. under 5% CO2 conditions for 30 min. Fatty acid diluted and prepared with a buffer obtained by adding 22 mM glucose to the above-mentioned KRBH was added to the cell after preincubation and the cells were incubated at 37° C. under 5% CO2 conditions for 90 min. After incubation, the cell supernatant was recovered and cryopreserved. The insulin content of the supernatant was measured using a commercially available insulin immunoassay kit (Amersham Pharmacia Biotech).
as §1, with “(KBH,” for “(KRBH,”, “The compound” for “Fatty acid”

T1 sequence (O14842 whole entry): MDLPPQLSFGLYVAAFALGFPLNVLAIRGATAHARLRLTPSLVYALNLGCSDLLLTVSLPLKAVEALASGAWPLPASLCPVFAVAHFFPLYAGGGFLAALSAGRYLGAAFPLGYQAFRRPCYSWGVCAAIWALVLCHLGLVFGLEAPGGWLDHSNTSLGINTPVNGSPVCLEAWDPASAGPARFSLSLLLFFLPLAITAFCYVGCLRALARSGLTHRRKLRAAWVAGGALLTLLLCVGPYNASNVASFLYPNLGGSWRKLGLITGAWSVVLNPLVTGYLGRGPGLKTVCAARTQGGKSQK

O=C(O)CCc1ccc(O[C@@H]2CCc3ccccc32)cc1 [Example 41, (R)-4-[(2,3-dihydro-1H-inden-1-yl)oxy]benzenepropanoic acid]
increase in insulin versus control group ([1]; at 7 minutes after glucose tolerance test): significantly greater increase in insulin
increase in blood glucose level versus control group ([1]; at 30 minutes after glucose tolerance test): significantly suppressed increase in the blood glucose level
EC50 [2]: 55 nM
insulin secretion enhancing activity [3]: significant insulin secretion enhancing activity

— patent US7960369B2, “Receptor function regulator” (Takeda Pharmaceutical Company Limited, priority 2002, dated 2011)
